Measured values reported in patent US7498311B2, “Treatment of migraine” (New England Medical Center Hospitals, Inc., priority 1995, dated 2009).

Test system: migraine episodes in epileptic patients
Assay: Anti-migraine activity in epileptic patients (two case reports, daily topiramate)
Type: in vivo, human
Excerpt: Patient 1, an epileptic, suffered from complex partial seizures and frequent episodes of migraine, some of which were temporally related to their seizures. Seizures and migraines were incompletely responsive to large doses of calcium channel blockers added to their anti-epileptic drug regimen. Patient 2 suffered from complex partial seizures and frequent, severe migraine episodes, requiring regular use of sumatripan. Patient 1 took topiramate daily for 18 months. Patient 2 took topiramate daily for 10 months.

Q: `CC1(C)O[C@@H]2[C@@H](CO[C@@]3(COS(N)(=O)=O)OC(C)(C)O[C@@H]23)O1` [topiramate, 2,3:4,5-bis-O-(1-methylethydine)-β-D-fructopyranose sulfamate] was tested. Which “improvement in migrainous episodes” value (Patient 1 (epileptic, complex partial seizures, frequent migraine), 600 mg/d) did it give?
A: substantial improvement in migrainous episodes

Q: What about the migrainous episodes (Patient 1, after taking 800 mg/d, verapamil, nimodipine and cimetidine withdrawn) of the same compound?
A: had not experienced any migrainous episodes

Q: What about the adverse effects (Patient 1, daily for 18 months) of the same compound?
A: did not experience any adverse effects

Q: What about the “control of migraine episodes” value (Patient 1, daily for 18 months, except for one migrainous aura, all calcium channel blockers withdrawn) of the same compound?
A: nearly completely controlled

Q: And the “improvement of migraine headaches” value (Patient 2 (epileptic, complex partial seizures, frequent severe migraine), 400 mg/d)?
A: substantial improvement of their migraine headaches

Q: What about the “frequency of migraine headaches” value (Patient 2, after taking 200 mg/d) of the same compound?
A: substantially less frequent migraine headaches

Q: And the “migraine status after the sixth month” value (Patient 2, daily for 10 months)?
A: migraine-free thereafter until the tenth month

Q: And the “migraine episodes in the fifth and sixth months of use” value (Patient 2, during brief cessation of their propanolol therapy)?
A: several episodes of basilar migraine without headache

Q: And the “use of sumatriptan rescue medication” value (Patient 2, once taking 300 mg/d)?
A: eliminating the average use of 2 administrations of sumatriptan per week
